Measurements from US8293919B2, “Antibacterial sulfone and sulfoxide substituted heterocyclic urea compounds” (Crestone, Inc., priority 2007, dated 2012).

Legend:
Type in all cases: cell-based
E. faecalis = assay: Bactericidal activity
S. aureus = assay: Bactericidal activity
E. faecium = assay: Bactericidal activity
[1] = tested on: clinically relevant resistant strains; assay: MIC in clinically relevant drug-resistant strains (all species together)
Description: (§1) Compounds of the present invention were tested for antibacterial activity against a variety of pathogenic organisms including S. aureus, S. pneumoniae, S. pyogenes, E. faecalis, H. influenza and M. catarrhalis using a standard broth microdilution method to determine their minimum inhibitory concentrations (MICs). All compounds were tested using standard methods in accordance with CLSI guidelines (Clinical and Laboratory Standards Institute). Compounds described in Examples 1-5, 7-12, 14, 16-17, 19-30, 32-35, 37-42, 44-66, 69, 71-76, 79-84, and 87 had MIC's of 0.25-4.0 μg/mL against some strains of the major Gram-positive organisms S. aureus, S. pneumoniae, S. pyogenes, and E. faecalis.
(§2) Compounds of the present invention were not compromised by existing resistance to all drug classes tested, including β-lactams, glycopeptides, oxazolidinones, macrolides, and fluoroquinolones. In particular, the compound described in Example 9 was active against methicillin- (oxacillin-) resistant S. aureus (MRSA), vancomycin-intermediate S. aureus (VISA), linezolid-resistant S. aureus, methicillin- (oxacillin-) resistant and mupirocin resistant S. epidermidis, macrolide-resistant S. pyogenes, macrolide-, penicillin-, and levofloxacin-resistant S. pneumoniae, vancomycin-, macrolide-, and ciprofloxacin-resistant E. faecalis (VRE) and vancomycin-, macrolide-, and ciprofloxacin-resistant E. faecium.

S. pyogenes = assay: Bactericidal activity
S. pneumoniae = assay: Bactericidal activity
[2] = tested on: macrolide-resistant S. pyogenes; assay: Antibacterial activity against drug-resistant strains
Description: as §1, §2

[3] = tested on: vancomycin-, macrolide-, and ciprofloxacin-resistant E. faecium; assay: as above
Description: as §1, §2

[4] = tested on: methicillin- (oxacillin-) resistant and mupirocin resistant S. epidermidis; assay: as above
Description: as §1, §2

[5] = tested on: macrolide-, penicillin-, and levofloxacin-resistant S. pneumoniae; assay: as above
Description: as §1, §2

[6] = tested on: resistant S. aureus (MRSA, VISA, linezolid-resistant); assay: as above
Description: as §1, §2

[7] = tested on: vancomycin-, macrolide-, and ciprofloxacin-resistant E. faecalis (VRE); assay: as above
Description: as §1, §2

S. epidermidis = assay: Bactericidal activity

CCCS(=O)(=O)Cc1csc(NC(=O)NCc2ccc(Cl)c(Cl)c2)n1 [Example 9, 1-(3,4-dichlorobenzyl)-3-(4-(propylsulfonylmethyl)thiazol-2-yl)urea]
comparable: MICs in sensitive versus drug resistant strains ([1]; sensitive versus drug resistant strains)
bactericidal: bactericidal effect (E. faecalis) | bactericidal effect (S. aureus) | bactericidal effect (E. faecium) | bactericidal effect (S. pyogenes) | bactericidal effect (S. pneumoniae) | bactericidal effect (S. epidermidis)
active: activity against resistant strain [2] | activity against resistant strain [3] | activity against resistant strain [4] | activity against resistant strain [5] | activity against resistant strain ([6]; linezolid-resistant S. aureus) | activity against resistant strain ([6]; methicillin- (oxacillin-) resistant S. aureus (MRSA)) | activity against resistant strain ([6]; vancomycin-intermediate S. aureus (VISA)) | activity against resistant strain [7]
0.5 to 4 µg/mL: MIC ([1]; clinically relevant resistant strains)
